Article PMC11046913, “Activation of retinoic acid-related orphan receptor γ(t) by parabens and benzophenone UV-filters” (Toxicology, 2022)
Where two headings read alike, the source gives them in different places.

How the values were obtained:
estrogenic activity = conditions: cited from earlier work
RORγ [1] = target: T1, RORγ (Mus musculus, UniProt P51450); test: cell-based; type: cell-based; conditions: for RORγ agonistic activity (in words): screening at 10 μM; for activation at 1 µM: read-out: % increase in RORγ activity (mean ± SD), individual agonist at 1 μM; for fold induction at 10 µM: read-out: RORγ-dependent transactivation compared to the DMSO vehicle control; for activation at 2.5 µM: read-out: % increase in RORγ activity (mean ± SD), individual agonist at 2.5 μM
T1 sequence (P51450 1-516): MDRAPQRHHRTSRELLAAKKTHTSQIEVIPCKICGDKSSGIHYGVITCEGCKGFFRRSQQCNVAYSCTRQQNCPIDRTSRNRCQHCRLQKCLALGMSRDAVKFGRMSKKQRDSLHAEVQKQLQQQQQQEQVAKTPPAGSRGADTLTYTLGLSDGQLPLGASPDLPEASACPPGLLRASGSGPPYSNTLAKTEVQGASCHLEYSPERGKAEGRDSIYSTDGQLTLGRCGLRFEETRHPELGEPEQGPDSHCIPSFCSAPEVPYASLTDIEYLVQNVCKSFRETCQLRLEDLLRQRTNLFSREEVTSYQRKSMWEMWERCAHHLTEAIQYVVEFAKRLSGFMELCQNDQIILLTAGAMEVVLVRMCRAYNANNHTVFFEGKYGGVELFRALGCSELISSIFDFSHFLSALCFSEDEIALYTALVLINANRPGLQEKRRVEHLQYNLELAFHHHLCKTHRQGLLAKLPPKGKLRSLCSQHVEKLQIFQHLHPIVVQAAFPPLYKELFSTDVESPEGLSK
Procedure: Both cell lines were cultured under standard conditions (37 °C, 5% CO2).

[2] = tested on: IL-17A mRNA in EL4 T-cells over expressing human RORγt; test: IL-17A mRNA expression (qRT-PCR) in EL4 cells overexpressing human RORγt; type: cell-based, murine; conditions: 5 h, PMA/ionomycin-stimulated
Procedure: (§1) EL4 cells were transfected with plasmid encoding the human variant of RORγt by electroporation and seeded into 12-well plates (500,000 cells and 1.6 μg plasmid in 2 mL cultivation medium per well). Transfection was performed using the NeonTM transfection system (Invitrogen, Carlsbad, CA, USA) as follows: 1.8 × 10^6 cells and 6 μg plasmid in 100 μL buffer R were exposed to one pulse (1080 V, 50 ms) utilizing a 100 μL gold tip. After incubation for 16 h, the cells were treated for 5 h with the indicated test compounds as well as PMA and ionomycin at a total concentration of 0.253 nM and 31.3 nM, respectively. Subsequently, cells were centrifuged at 200 g for 3 min and total RNA was isolated from the pellet with the RNeasy Mini Kit according to the manufacturer’s protocol (Qiagen, Venlo, Netherlands). Contamination with genomic DNA was prevented by on-column DNA digestion using DNase I (RNase-free, Qiagen). RNA (1 μg) was reverse transcribed to complementary DNA (cDNA) utilizing the Takara PrimeScript RT Reagent Kit, according to the manufacturer’s protocol (Takara Bio Inc., Kusatsu, Japan). Finally, quantitative polymerase chain reaction (qPCR) was performed using Kapa SYBER® Fast qPCR Master Mix (KAPA Biosystems, Wilmington, MA, USA) as described earlier ([Inderbinen et al., 2020]). The following primers were used: peptidylprolyl isomerase A (PPIA): forward 5’-[…]-3’, reverse 5’-[…]-3’; IL-17A: forward 5’-[…] CCAA-3’, reverse 5’-[…]-3’; IL-22: forward 5’-[…]-3’, reverse 5’-[…]-3’. Primer quality was verified by analysis of melting curves and inspection of the PCR product on an agarose gel (single band at the expected size of the amplified sequence). Resulting CT values were normalized to values of the endogenous control gene PPIA and compared to control according to the 2^−ΔΔCT method ([Schmittgen and Livak, 2008]).

RORγ [3] = target: T1, RORγ; conditions: in presence of 1.25 μM SR2211, test compound at different concentrations
Procedure: The CHO RORγ Tet-on cell line used in this study is a well-established reporter gene system to assess RORγ agonists and antagonists. […] CHO RORγ Tet-on cells were seeded in 96-well plates at a density of 2000 cells/100 μL culture medium, followed by incubation overnight. Subsequently, the medium was renewed, and the respective test compound dissolved in dimethylsulfoxide (DMSO) was added to the wells using a HP D300 Digital Liquid Dispenser with T8 dispense heads (HP Inc., Palo Alto, CA, USA). […] Two hours later, RORγ expression was induced by adding doxycycline at 1 μM final concentration. All samples were adjusted to contain the same volume and concentration of DMSO. After 16 h of incubation, cells were washed with PBS, lysed with 20 μL Tropix lysis solution (Applied Biosystems, Foster City, CA, USA) containing 1 mM dithiothreitol and frozen at − 80 °C for at least 20 min. […] Measured values were normalized to values from control cells treated with DMSO vehicle control only and induced with doxycycline.
Cells were simultaneously exposed to SR2211 and a given test compound at different concentrations or vehicle control.

[4] = tested on: IL-22 mRNA in EL4 T-cells over expressing human RORγt; test: IL-22 mRNA expression (qRT-PCR) in EL4 cells overexpressing human RORγt; type: cell-based, murine; conditions: 5 h, PMA/ionomycin-stimulated
Procedure: as §1

[5] = set-up: method as in CIR, 2008; conditions: relatively long alkyl side chain; ref CIR, 2008; cited from earlier work
[6] = cited from earlier work
[7] = set-up: method as in Benson et al., 2005; Fernandez et al., 2002; conditions: human; ref Benson et al., 2005; Fernandez et al., 2002; cited from earlier work
[8] = only at high micromolar concentrations, ref Charles and Darbre, 2009

Structure (SMILES) | RORγ agonistic activity (in words) (RORγ [1]) | IL-17A transcription ([2]; 10 μM, vs vehicle control) | activation at 1 µM (RORγ [1]) | Reversal of the SR2211-mediated inhibition of RORγ transactivation (RORγ [3]) | IL-22 transcription ([4]; 10 μM, vs vehicle control) | fold induction at 10 µM (RORγ [1]) | further results
O=C(c1ccc(O)cc1)c1ccc(O)cc1O [2,4,4’-trihydroxybenzophenone] | agonistic activity |  |  |  |  |  | estrogenic activity (estrogenic activity; ref Suzuki et al., 2005): weak estrogenic activity
O=C(c1ccc(O)cc1)c1ccc(O)cc1 [4,4’-dihydroxybenzophenone] | agonistic activity |  |  |  |  |  | 
Cc1ccc(Sc2ccc(C(=O)c3ccccc3)cc2)cc1 [4-(4-methylphenylthio)benzophenone] | agonistic activity |  |  |  |  |  | 
Cc1ccc(OC(=O)c2ccccc2)cc1 [4-Methylphenylbenzoate] | significant agonistic activity | did not significantly enhance | 6 ± 9% | failed to do so | did not significantly enhance |  | 
COc1ccc(C(=O)c2ccc(OC)cc2O)c(O)c1 [Benzophenone-6, benzophenone-6] | agonistic activity |  | -1 ± 5% |  |  | > 1.5 | 
COc1ccc(C(=O)c2ccc(C)cc2)c(O)c1 [Benzophenone-10, benzophenone-10] | agonistic activity | elevated expression | 15 ± 5% | significant increase | tended to increase |  | RORγ-dependent transactivation compared to the DMSO vehicle control (RORγ [1]; first screening, 10 μM): more than 1.5 fold; activation at 2.5 µM (RORγ [1]): 63 ± 4%
O=C(OCc1ccccc1)c1ccccc1 [Benzylbenzoate] | significant agonistic activity | did not significantly enhance | 16 ± 12% | restore the suppressed RORγ activity in a concentration-dependent manner | did not significantly enhance |  | estrogenic activity (estrogenic activity; [8]): Estrogenic activity
O=C(OCc1ccccc1)c1ccc(O)cc1 [Benzylparaben, benzylparaben] |  | a trend was detected | 13 ± 4% | significant increase | tended to increase | > 1.5 | activation at 2.5 µM (RORγ [1]): 45 ± 2%
O=C(OCc1ccccc1)c1ccccc1O [Benzylsalicylate] | significant agonistic activity | did not significantly enhance | 18 ± 3% | restore the suppressed RORγ activity in a concentration-dependent manner | did not significantly enhance |  | estrogenic activity (estrogenic activity; [8]): Estrogenic activity
CCCCOC(=O)c1ccc(O)cc1 [Butylparaben, butylparaben] |  |  | 5 ± 4% |  |  | > 1.5 | 
CCc1ccc(N(CC(C)C)S(=O)(=O)c2ccc(OCC3CCOCC3)c(CO)c2)cc1 [GSK2981278, reference compound] |  |  |  |  |  |  | IL-17A transcription ([2]; 1 μM): efficient modulation; IL-22 transcription ([4]; 1 μM): efficient modulation
CCCCCCCOC(=O)c1ccc(O)cc1 [Heptylparaben, heptylparaben] |  |  | 5 ± 5% |  |  | > 1.5 | 
CCCCCCOC(=O)c1ccc(O)cc1 [Hexylparaben, hexylparaben] |  | elevated expression |  | significant increase | significantly increased transcription | > 1.5 | solubility [5]: reduced solubility; activation at 2.5 µM (RORγ [1]): 83 ± 8%
O=C(Oc1ccccc1)c1ccc(O)cc1 [Phenylparaben, phenylparaben] |  |  | 5 ± 2% |  |  | > 1.5 | 
O=C(Nc1ccc(C(O)(C(F)(F)F)C(F)(F)F)cc1)c1ccccc1Cl [SR0987, reference compound] |  | efficient modulation |  |  | significantly increased transcription |  | 
COc1ccc(C(=O)CC(=O)c2ccc(C(C)(C)C)cc2)cc1 [avobenzone] |  |  |  |  |  |  | skin penetration ([6]; ref Simeoni et al., 2004, Weigmann et al., 2001): limited skin penetration
O=C(c1ccccc1)c1ccc(O)cc1O [benzophenone-1] |  |  |  |  |  |  | RORγ agonistic effect (in words, discussion) (RORγ [1]; micromolar concentrations): only weak RORγ agonistic effect
O=C(c1ccc(O)cc1O)c1ccc(O)cc1O [benzophenone-2] | agonistic activity |  |  |  |  |  | 
COc1ccc(C(=O)c2ccccc2)c(O)c1 [benzophenone-3] | agonistic activity |  |  |  |  |  | concentration in breast milk [7]: 779.9 ng/g milk; concentration in serum [7]: 304 µg/L; concentration in urine [7]: 300 µg/L; skin penetration ([6]; human skin, ref Benson et al., 2005, Fernandez et al., 2002): penetrate the human skin efficiently
O=c1c(-c2ccc(O)cc2)coc2cc(O)cc(O)c12 [genistein, reference compound] |  | efficient modulation |  |  | significantly increased transcription |  | 
